SMILES strings stand for the structures. pIC50: −log10 of the molar value. Where two headings read alike, the source gives them in different places. Some results are limits rather than exact numbers.

Data set [1] deals with T1, hTRPA1 (Homo sapiens, UniProt O75762). Put plainly: Whole-cell patch clamp block of inward current through hTRPA1. Type of data set: cell-based. The protocol: (§1) Data for TRPA1 inhibition and the selectivity of TRPA1 inhibition was obtained by this method for the compound of Formula (Ia) and included in Table 1 and Table 2. All currents were recorded in whole-cell configuration using EPC-9 and EPC-10 amplifiers and Patchmaster software (HEKA). […] The standard pipette solution consisted of 140 mM CsAsp, 10 mM EGTA, 10 mM HEPES, 2.27 mM MgCl2, 1.91 mM CaCl2, 4 mM MgATP, and 0.1-0.3 mM Na2GTP, with pH adjusted to 7.2 with CsOH. In addition, a solution containing 145 mM CsCl, 10 mM HEPES, 10 mM EGTA and 1 mM MgCl2 (pH 7.2 adjusted with CsOH) can be used. The standard bath solution contained 150 mM NaCl, 10 mM HEPES, 10 mM glucose, 4.5 mM KCl, 1 mM EGTA, 3 mM MgCl2, with pH adjusted to 7.4 with NaOH. In some instances, 2 mM CaCl2 was added in place of EGTA and the concentration of MgCl2 was reduced to 1 mM.
(§2) Data were collected either by continuous recordings at −60 mV or by applying voltage ramps from a holding potential of 0 mV every 4 s. Continuous recordings were collected at 400 Hz and digitally filtered off-line at 10 Hz for presentation. Voltage ramps were applied from −100 mV to 100 mV over the course of 400 ms, and data were collected at 10 kHz and filtered at 2.9 kHz. Inward and outward currents were analyzed from the ramps at −80 and 80 mV, respectively. Liquid junction potential correction was not used.
(§3) Solutions were switched using a gravity-fed continuous focal perfusion system. To achieve rapid temperature changes, two temperature control and perfusion systems were employed simultaneously. For temperatures ≧22° C., a Warner Instruments bipolar temperature controller (TC-344B) and inline heater (SHM-8) were used. […] Temperatures were confirmed using a thermistor (Warner Instruments, TA-29), with temperatures at the recorded cell estimated to be within +/−2° C. of those reported.
IC50 of compounds was estimated by testing each compound at 5 micromolar and 500 nanomolar. […] IC50 for compounds between 500 nanomolar and 5 micromolar was similarly estimated. Compounds blocking 50% or more at 500 nanomolar are retested at multiple concentrations, and the % block at each is fitted by standard equations to determine IC50 accurately using a 5-6 point concentration/response experiment.
(In patch-clamp work, channel activity is measured electrically.)

Data set [2] deals with T1, hTRPA1. Put plainly: hTrpA1 IC50 measured in 1% RSA (rat serum albumin). Type of data set: cell-based.
Data set [3] has as its system CFA-induced cold allodynia. Put plainly: Complete Freund's Adjuvant (CFA) cold allodynia rodent pain model. The class given is in vivo. As to conditions: 150 mg/kg; vehicle 19.8. The protocol: The compound of Formula (Ia) is also active in rodent models of pain in vivo induced by cold allodynia following chronic Complete Freund's Adjuvant-induced inflammation, as described in Example 6. […] The compound of Formula (Ia), the comparator compound of Formula (II) and ketoprofen were tested by the CFA-induced pain test method reported in del Camino et al., J. Neurosci., 30(45):15165-15174, incorporated herein by reference in its entirety. Briefly, the hind paw was sensitized to cold temperature (allodynic), by administering 0.1 mL of Complete Freund's Adjuvant (CFA) to the left hind paw. 2-3 days later, the time taken for the animal to lift its CFA-injected paw was recorded compared to its un-injected normal right hind paw. […] To avoid tissue damage the maximum cut-off time was 5 minutes. Animals that were allodynic (average PWL to the first three pain behaviors <150 seconds for the CFA-injected hind paw: ˜≧50% difference between the normal and CFA-injected paw) were included in the study and subsequently randomized across treatment groups. The following day, the animals were dosed under blinded conditions. Following the 1-2 hour pre-treatment time, the post-dose PWL readings were again taken. The efficacy of the drug treatment was assessed by comparing the PWL in the drug treatment animals to those animals that received the vehicle.

The subject of data set [4] is formalin-induced pain behavior. Put plainly: Formalin-induced pain behavior in vivo rodent model. Also noted: species or system rat. As to conditions: for # of Flinches: Table 3c, vehicle 120. From the text: The data shown in Tables 3a, 3b, and 3c and FIG. 2 were obtained by administering a pharmaceutical composition comprising the compound of Formula (Ia) to rodents in the formalin-induced pain duration at various doses according to Example 5. Specifically, the data in Tables 3a, 3b, and 3c and FIG. 2 were obtained by intraperitoneal (i.p.) administration of compositions containing different concentrations of the compound of Formula (Ia), a comparator composition containing recited amounts of the comparator compound (e.g., 150 mg/kg of the comparator compound of Formula (II) in Table 3a) and a control composition containing the vehicle (e.g., without the compound of Formula (Ia) or a comparator compound).
The compound of Formula (Ia) and the comparator compounds of Formula (II) and Formula (III) were tested in the formalin-induced pain test reported by Dubuisson et al., Pain 1977 December; 4(2):161-74 (incorporated herein by reference in its entirety). Dubuisson et al. (1977) describe a method for assessing pain and analgesia in rats and cats. Briefly, dilute formalin (50 μL of 3% formalin) is injected into the plantar surface of the hind paw. […] The individual responsible for counting the pain behaviors in a particular study is blinded to the treatment groups.
Rats were treated with the HCl salt of Compound (Ia) at various doses (3, 10, 30, and 50 mg/kg, IP) or with the vehicle (IP).

Data set [5] relates to serum biomarkers of hepatotoxicity (ALT, AST, ALP, GGT). Kind of data set: Hepatotoxicity serum biomarker study in dogs, oral dose. Type of data set: in vivo, dog. The note with it: for ALT level elevation: single PO dose of 50 mg/kg. How it is done:
The compound of Formula (Ia) was orally dosed to […] at dose levels of 5, 15 or 50 mg/kg using 30% Sulfobutylether β-cyclodextrin as the vehicle for assessment of safety as measured via serum chemistry biomarkers of hepatotoxicity or bile duct injury FIG. 5A, showing measurements of alanine aminotranferease [ALT], aspartate aminotranferease [AST], alkaline phosphatase [ALP] and gamma-glutamyl transferase [GGT] in the dogs at each dose level (each bar represents a measurement from 1 dog in the study). […] For example, the ALT levels were elevated up to about 60-fold in male dogs and up to about 130-fold in female beagle dogs following a single PO dose of 50 mg/kg.

The nature of data set [6]: Oral bioavailability pharmacokinetic study. Type of data set: in vivo. The note with it: rat, plasma, PO versus IV. How it is done: The potency and pharmacokinetic (PK) properties of (a) the compound of Formula (Ia); and (b) comparator compound of Formula (III) were evaluated. Bioavailability was measured as well. A pharmacokinetic study was performed to obtain a plasma drug concentration vs time plot for the drug after both intravenous (IV) and oral (PO) administration. The absolute bioavailability is the dose-corrected area under curve (AUC) non-intravenous divided by AUC intravenous. The formula for calculating F for a drug administered by the oral route (PO) is given below.
The bioavailability was calculated using the equation shown below:
% F=AUC PO×Dose IV/AUC IV×Dose PO

The next data set deals with rTRPA1 (Rattus norvegicus, UniProt Q6RI86). Put plainly: Whole-cell patch clamp block of inward current through rTRPA1. The class given is cell-based. The note with it: class symbol; read-out: Potency (IC50) Rat. How it is done: as §1, §2, §3
(§4) IC50 of compounds was estimated by testing each compound at 5 micromolar and 500 nanomolar. […] IC50 for compounds between 500 nanomolar and 5 micromolar was similarly estimated. […]

The nature of data set [7]: 7-day repeat dose i.p. screening toxicity study in rats. Type of data set: in vivo, rat. As to conditions: rats; 50 mg/kg/day i.p. for 7 consecutive days. The protocol: The compound of Formula (Ia) was evaluated in a 7-day repeat dose screening toxicity study in female rats. In order to maximize systemic exposure, rats were administered compound of Formula (Ia) i.p. at 50 mg/kg/day for 7 consecutive days, to obtain the results shown in FIG. 6. Clinical chemistry parameters were evaluated on Days 3 and 8. Histopathology was performed on select organs including the liver, kidney, spleen, and lung.

Another data set has as its target dTRPA1 (Canis lupus familiaris, UniProt A0A8I3Q1Q7). Put plainly: Whole-cell patch clamp block of inward current through dTRPA1. The class given is cell-based, Dog. As to conditions: class symbol; read-out: Potency (IC50) Dog. How it is done:
as §1, §2, §3, §4

Data set [8] is described as follows: Human plasma protein binding by equilibrium dialysis. Type of data set: in vitro ADME. The note with it: percentage bound. The protocol: The amount of compound in buffer (free fraction) and the amount of compound associated with the plasma fraction is determined by equilibrium dialysis; the amount of compound bound is expressed as a percentage. (Banker et al., Journal of Pharmaceutical Sciences (2003) 92(5): 967-74.)
A general note: In equilibrium dialysis only unbound substance equilibrates across the membrane.

Setting [9] is: hTRPA1, Human, current activation 10 micromolar AITC, whole cell patch, read-out: IC50 Inward current.

T1 sequence (O75762 whole entry): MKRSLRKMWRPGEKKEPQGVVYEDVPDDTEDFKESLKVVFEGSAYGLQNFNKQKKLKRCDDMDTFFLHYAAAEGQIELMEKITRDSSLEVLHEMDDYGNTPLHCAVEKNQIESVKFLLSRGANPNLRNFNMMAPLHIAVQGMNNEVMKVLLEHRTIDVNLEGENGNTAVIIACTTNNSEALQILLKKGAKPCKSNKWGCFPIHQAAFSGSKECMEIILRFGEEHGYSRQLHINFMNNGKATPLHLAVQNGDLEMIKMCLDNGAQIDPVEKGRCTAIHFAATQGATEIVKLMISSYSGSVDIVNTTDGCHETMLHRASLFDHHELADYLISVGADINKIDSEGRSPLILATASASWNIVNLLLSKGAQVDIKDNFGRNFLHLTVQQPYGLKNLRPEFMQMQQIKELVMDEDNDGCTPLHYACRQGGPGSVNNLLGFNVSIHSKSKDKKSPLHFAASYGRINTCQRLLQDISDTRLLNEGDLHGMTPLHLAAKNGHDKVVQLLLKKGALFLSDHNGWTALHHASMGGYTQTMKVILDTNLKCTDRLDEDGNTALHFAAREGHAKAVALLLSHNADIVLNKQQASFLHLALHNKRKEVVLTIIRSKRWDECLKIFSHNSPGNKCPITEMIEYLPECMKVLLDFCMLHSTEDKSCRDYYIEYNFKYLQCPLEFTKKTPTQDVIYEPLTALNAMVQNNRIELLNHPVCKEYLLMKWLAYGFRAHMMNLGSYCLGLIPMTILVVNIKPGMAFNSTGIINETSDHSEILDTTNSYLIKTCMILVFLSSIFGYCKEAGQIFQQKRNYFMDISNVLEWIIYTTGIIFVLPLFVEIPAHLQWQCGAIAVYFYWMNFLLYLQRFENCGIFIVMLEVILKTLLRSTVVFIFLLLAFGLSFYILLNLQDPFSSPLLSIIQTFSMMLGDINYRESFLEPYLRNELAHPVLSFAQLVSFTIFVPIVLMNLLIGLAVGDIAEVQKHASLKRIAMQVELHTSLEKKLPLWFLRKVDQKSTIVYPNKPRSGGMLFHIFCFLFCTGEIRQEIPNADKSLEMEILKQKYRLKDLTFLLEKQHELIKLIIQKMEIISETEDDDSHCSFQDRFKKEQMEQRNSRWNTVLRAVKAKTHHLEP
Sequence of dTRPA1 (A0A8I3Q1Q7 1-1118): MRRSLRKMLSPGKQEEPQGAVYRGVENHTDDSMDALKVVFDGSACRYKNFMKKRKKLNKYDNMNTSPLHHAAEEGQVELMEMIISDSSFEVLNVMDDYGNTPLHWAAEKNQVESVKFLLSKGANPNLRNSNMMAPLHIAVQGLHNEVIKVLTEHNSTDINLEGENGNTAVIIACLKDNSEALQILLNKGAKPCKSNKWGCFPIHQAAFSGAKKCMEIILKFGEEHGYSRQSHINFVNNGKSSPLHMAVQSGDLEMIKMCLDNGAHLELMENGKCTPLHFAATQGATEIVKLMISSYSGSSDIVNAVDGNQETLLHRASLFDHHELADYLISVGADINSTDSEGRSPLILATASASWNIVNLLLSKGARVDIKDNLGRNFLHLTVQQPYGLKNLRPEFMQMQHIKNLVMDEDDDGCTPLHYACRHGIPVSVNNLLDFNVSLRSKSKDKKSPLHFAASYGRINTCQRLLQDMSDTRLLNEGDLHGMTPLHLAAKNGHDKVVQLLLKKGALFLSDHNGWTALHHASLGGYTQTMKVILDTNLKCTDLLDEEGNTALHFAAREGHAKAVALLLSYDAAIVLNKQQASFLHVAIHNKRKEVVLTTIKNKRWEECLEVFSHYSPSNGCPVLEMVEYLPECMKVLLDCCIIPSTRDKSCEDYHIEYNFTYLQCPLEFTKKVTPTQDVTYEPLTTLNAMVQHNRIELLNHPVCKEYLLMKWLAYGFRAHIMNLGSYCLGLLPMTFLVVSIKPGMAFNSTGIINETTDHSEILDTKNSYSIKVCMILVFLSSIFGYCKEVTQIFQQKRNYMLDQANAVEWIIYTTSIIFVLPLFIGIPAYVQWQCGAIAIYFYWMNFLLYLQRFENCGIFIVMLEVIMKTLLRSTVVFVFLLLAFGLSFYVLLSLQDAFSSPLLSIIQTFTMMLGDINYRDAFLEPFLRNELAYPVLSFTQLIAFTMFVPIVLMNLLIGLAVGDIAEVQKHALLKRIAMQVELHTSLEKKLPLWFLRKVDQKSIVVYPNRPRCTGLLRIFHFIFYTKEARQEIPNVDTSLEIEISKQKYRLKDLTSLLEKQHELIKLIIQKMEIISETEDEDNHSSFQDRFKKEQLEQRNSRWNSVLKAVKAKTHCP
Sequence of rTRPA1 (Q6RI86 whole entry): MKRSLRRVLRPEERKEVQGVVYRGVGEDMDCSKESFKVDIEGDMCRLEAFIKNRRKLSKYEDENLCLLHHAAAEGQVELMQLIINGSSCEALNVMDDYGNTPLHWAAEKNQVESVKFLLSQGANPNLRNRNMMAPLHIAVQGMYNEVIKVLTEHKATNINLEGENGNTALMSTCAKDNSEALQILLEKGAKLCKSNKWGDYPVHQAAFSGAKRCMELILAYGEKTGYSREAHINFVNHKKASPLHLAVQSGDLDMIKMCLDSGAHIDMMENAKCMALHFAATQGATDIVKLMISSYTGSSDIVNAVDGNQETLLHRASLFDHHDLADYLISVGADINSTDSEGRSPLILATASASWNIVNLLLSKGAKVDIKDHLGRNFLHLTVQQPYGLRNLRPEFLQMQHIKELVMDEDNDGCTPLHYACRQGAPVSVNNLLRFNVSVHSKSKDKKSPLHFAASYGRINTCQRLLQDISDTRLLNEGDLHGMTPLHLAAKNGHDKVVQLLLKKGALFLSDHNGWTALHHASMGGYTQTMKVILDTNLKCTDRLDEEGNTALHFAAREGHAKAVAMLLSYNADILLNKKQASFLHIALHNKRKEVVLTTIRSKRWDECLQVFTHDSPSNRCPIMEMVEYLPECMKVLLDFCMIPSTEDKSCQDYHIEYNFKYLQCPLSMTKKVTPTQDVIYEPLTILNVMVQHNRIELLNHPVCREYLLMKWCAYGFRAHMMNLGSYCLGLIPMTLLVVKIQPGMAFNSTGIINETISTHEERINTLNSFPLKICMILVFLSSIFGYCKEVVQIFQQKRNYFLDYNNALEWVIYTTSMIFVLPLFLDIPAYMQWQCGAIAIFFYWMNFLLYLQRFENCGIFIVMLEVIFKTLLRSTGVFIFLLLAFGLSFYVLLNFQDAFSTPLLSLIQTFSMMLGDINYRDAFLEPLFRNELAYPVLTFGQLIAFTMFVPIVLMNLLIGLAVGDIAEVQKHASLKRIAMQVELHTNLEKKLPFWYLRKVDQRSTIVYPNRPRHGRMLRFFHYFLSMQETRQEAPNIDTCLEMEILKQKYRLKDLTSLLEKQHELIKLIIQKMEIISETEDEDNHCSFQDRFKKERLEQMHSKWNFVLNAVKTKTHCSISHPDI

By pIC50 is commonly meant −log10 of the IC50, conventionally taken in molar units. As for `C[C@@H]1CCCN1c1ncc(-c2cccc(NC(=O)Cn3cnc4c3c(=O)n(C)c(=O)n4C)n2)cn1` [Formula (Ib)], the values for the pIC50 at hTRPA1 [1] (setting [9]) and against hTRPA1 [2] were 7.11 and 4.82, respectively.

`CC(C)c1ccc(NC(=O)Cn2cnc3c2c(=O)n(C)c(=O)n3C)cc1` [Formula (II)]: the “Change in Paw Withdrawal Latency” value in [3] worked out at 142.2. Also, the “# of Flinches” value in [4] (30 mg/kg) was found to be 88; in data set [4] (100 mg/kg), 62; in data set [4] (300 mg/kg), 43. In addition, the “Duration of Pain Behavior” value in data set [4] (150 mg/kg, Table 3a, vehicle 88.6) is 40.0 s.

As a reminder, the bioavailability is dose-corrected exposure relative to a reference, in per cent. In general, fraction unbound refers to the share of the substance not bound to proteins or other matrix. High values mean much free substance, low ones little free substance. For `C[C@H]1CCCN1c1ccc(-c2csc(NC(=O)Cn3cnc4c3c(=O)n(C)c(=O)n4C)n2)cc1F` [Formula (III), reference compound], the “effect on serum biomarkers of hepatotoxicity” value in [5] (dogs, 50 mg/kg PO) was “did elevate serum biomarkers of hepatotoxicity”; in data set [7], “did elevate serum biomarkers of hepatotoxicity as compared to Formula (Ia)”. Further, the ALT level elevation result in data set [5] (female beagle dogs) is “up to 130 fold”; in data set [5] (male dogs) it was “up to 60 fold”. Besides, the pIC50 on hTRPA1 [1] (setting [9]) is more than 7.60; on hTRPA1 [1] (hTRPA1, class symbol, read-out: Potency (IC50) Human), more than 7.60; on rTRPA1 it was 7.00 to 7.30; at dTRPA1, more than 7.60. Moreover, the “Duration of Pain Behavior” value in data set [4] (50 mg/kg, Table 3b, vehicle 77.2) came to 44.3 s. Further, the bioavailability in data set [6] (oral, fed rats, read-out: Bioavailability (Rat) Fed) is 1 to 25%; in data set [6] (po, fasted rats, read-out: Bioavailability (Rat) Fasted) it was 25 to 50%; in data set [6] (po, fed rats, read-out: Bioavailability (Rat) Fed), 1 to 25%. The same compound returned a fraction unbound in data set [8] of less than 0.01.

For `NCC1(CC(=O)O)CCCCC1` [Gabapentin], the “# of Flinches” value in data set [4] (reference, dose not given) is listed as 75.

For the origin of these results see patent US20140158116A1, “INHIBITING TRPA1 FOR THE TREATMENT OF ASTHMA” (Cubist Pharmaceuticals, Inc., priority 2012, published 2014).
